Literature values in US20170216178A1, “Cosmetic or Dermatological Composition Containing Retinaldehyde and DNA” (GALEPHAR PHARMACEUTICAL RESEARCH, INC., priority 2016, published 2017).

Key:
P. acnes = details: against P. acnes
skin cancer = details: mice
skin = details: topical; compared with retinoids
comedones = details: topical; compared with retinoic acid (tretinoin); rhino mouse model

O=C(O)CCCCCCCC(=O)O [azelaic acid]
intra-follicular antibacterial activity (P. acnes): showed an intra-follicular antibacterial activity

O=C(OOC(=O)c1ccccc1)c1ccccc1 [benzoyl peroxide]
potential for the development of skin cancer (skin cancer): may increase the potential for the development of skin cancer

CC1=C(/C=C/C(C)=C/C=C/C(C)=C/C=O)C(C)(C)CCC1 [retinaldehyde]
skin tolerance (skin): significantly higher skin tolerance
comedolytic action (comedones): identical to that of retinoic acid
